# Test results taken from US20250381179A1, “CHROMAN-BASED COMPOUNDS FOR TREATING CANCER” (priority 2024, published 2025).
# “Also recorded” adds a separate entry of the source.
# Experiment: Phase 1 study: safety and tolerability (TEAEs, NCI CTCAE v5.0)
# Description: The study employed an open-label, 3+3 design, with the option of adding backfill patients to each cohort cleared and deemed safe. […] Tumor responses were assessed every 2 cycles using RECIST v1.1 criteria. […] The study also involves an ongoing dose escalation study where participants receive 100 mg, 200 mg, 300 mg, 400 mg, and 600 mg once daily (QD) dose levels.
# Safety was assessed through the analysis of the reported incidence of treatment-emergent AEs. Treatment-emergent AEs are those with an onset on or after the initiation of therapy and will be graded according to NCI CTCAE Version 5.0. Other safety endpoints, including laboratory results, vital signs, and ECG findings, were summarized for all patients in the Safety set.
# [1] = Cohort 2/200 mg QD, patient 4, first listed event
# [2] = Cohort 2/200 mg QD, patient 4, second listed event
# [3] = Cohort 3/300 mg QD, patient 1, first listed event
# [4] = Cohort 3/300 mg QD, patient 1, second listed event
smiles,measurement,setting,value
"O=C1CC[C@H](N2Cc3cc(N4CCN(CC5CCN(c6ccc([C@@H]7c8ccc(O)cc8OC[C@@H]7c7ccccc7)cc6F)CC5)CC4)ccc3C2=O)C(=O)N1 [compound (1-g), (S)-3-(5-(4-((1-(2-fluoro-4-((3S,4R)-7-hydroxy-3-phenylchroman-4-yl)phenyl)piperidin-4-yl)methyl)piperazin-1-yl)-1-oxoisoindolin-2-yl)piperidine-2,6-dione]",Duration of TEAE leading to dose interruption: Pain in extremity,[1],56 days
same,"Related to Compound (1-g), TEAE leading to dose interruption: Pain in extremity",[1],No
same,CTCAE Grade of TEAE leading to dose interruption: Pain in extremity,[2],2
same,"Related to Compound (1-g), TEAE leading to dose interruption: Pain in extremity",[2],No
same,participants with TEAEs that led to dose interruption,Cohort 3 (300 mg QD),2 participants
same,CTCAE Grade of TEAE leading to dose interruption: Anaemia,"Cohort 3/300 mg QD, patient 1",3
same,"Related to Compound (1-g), TEAE leading to dose interruption: Anaemia","Cohort 3/300 mg QD, patient 1",No
same,CTCAE Grade of TEAE leading to dose interruption: Acute kidney injury,[3],3
same,Duration of TEAE leading to dose interruption: Acute kidney injury,[3],6 days
same,"Related to Compound (1-g), TEAE leading to dose interruption: Acute kidney injury",[3],No
same,CTCAE Grade of TEAE leading to dose interruption: Acute kidney injury,[4],3
same,Duration of TEAE leading to dose interruption: Acute kidney injury,[4],7 days
same,"Related to Compound (1-g), TEAE leading to dose interruption: Acute kidney injury",[4],No
same,CTCAE Grade of TEAE leading to dose interruption: Muscular weakness,"Cohort 3/300 mg QD, patient 2",2
same,CTCAE Grade of TEAE leading to dose interruption: Upper respiratory tract infection,"Cohort 3/300 mg QD, patient 2",2
same,Duration of TEAE leading to dose interruption: Upper respiratory tract infection,"Cohort 3/300 mg QD, patient 2",8 days
same,"Related to Compound (1-g), TEAE leading to dose interruption: Muscular weakness","Cohort 3/300 mg QD, patient 2",No
same,"Related to Compound (1-g), TEAE leading to dose interruption: Upper respiratory tract infection","Cohort 3/300 mg QD, patient 2",No
same,participants with TEAEs that led to dose interruption,"Cohort 4 and 5 (400, 600 mg QD)",No participant experienced TEAEs that led to dose interruption
same,"Constipation, Related-TEAE All Grades",N = 37,3 n (%)
same,"Constipation, Related-TEAE Grade ≥ 3",N = 37,0 n (%)
same,"Constipation, TEAE All Grades",N = 37,4 (11) n (%)
same,"Constipation, TEAE Grade ≥ 3",N = 37,0 n (%)
same,"Dehydration, Related-TEAE All Grades",N = 37,0 n (%)
same,"Dehydration, Related-TEAE Grade ≥ 3",N = 37,0 n (%)
same,"Dehydration, TEAE All Grades",N = 37,5 (14) n (%)
same,"Dehydration, TEAE Grade ≥ 3",N = 37,2 (5) n (%)
same,"Fatigue, Related-TEAE All Grades",N = 37,2 n (%)
same,"Fatigue, Related-TEAE Grade ≥ 3",N = 37,0 n (%)
same,"Fatigue, TEAE All Grades",N = 37,6 (16) n (%)
same,"Fatigue, TEAE Grade ≥ 3",N = 37,1 (3) n (%)
same,Grade 5 event of seizure,N = 37,1 event
same,"Hot flush, Related-TEAE All Grades",N = 37,5 n (%)
same,"Hot flush, Related-TEAE Grade ≥ 3",N = 37,0 n (%)
same,"Hot flush, TEAE All Grades",N = 37,5 (14) n (%)
same,"Hot flush, TEAE Grade ≥ 3",N = 37,0 n (%)
same,"Nausea, Related-TEAE All Grades",N = 37,5 n (%)
same,"Nausea, Related-TEAE Grade ≥ 3",N = 37,0 n (%)
same,"Nausea, TEAE All Grades",N = 37,7 (19) n (%)
same,"Nausea, TEAE Grade ≥ 3",N = 37,0 n (%)
same,"Neutrophil count decreased, Related-TEAE All Grades",N = 37,4 n (%)
same,"Neutrophil count decreased, Related-TEAE Grade ≥ 3",N = 37,0 n (%)
same,"Neutrophil count decreased, TEAE All Grades",N = 37,6 (16) n (%)
same,"Neutrophil count decreased, TEAE Grade ≥ 3",N = 37,1 (3) n (%)
same,"TEAE constipation, participants",N = 37,10.8%
same,"TEAE dehydration, participants",N = 37,13.5%
same,"TEAE fatigue, participants",N = 37,16.2%
same,"TEAE hot flush, participants",N = 37,13.5%
same,"TEAE nausea, participants",N = 37,18.9%
same,"TEAE neutrophil count decreased, participants",N = 37,16.2%
same,compound-related SAEs,N = 37,No compound (1-g)-related SAEs were observed
same,"deaths reported, all assessed as unrelated to compound (1-g)",N = 37,3 deaths
same,dose reductions or treatment discontinuations due to TEAEs,N = 37,no dose reductions or treatment discontinuations due to TEAEs
same,grade of treatment-related AEs,N = 37,All treatment-related AEs were Grade 1 or 2
same,participants with at least a TEAE,N = 37,78%
same,patients experiencing SAEs (nine SAEs),N = 37,8 patients
same,"related TEAE hot flush, participants",N = 37,13.5%
same,"related TEAE nausea, participants",N = 37,13.5%
same,"related TEAE neutrophil count decrease, participants",N = 37,10.8%
same,relatedness of TEAEs that led to dose interruption,N = 37,None of these were considered related to compound (1-g)
same,participants with compound (1-g) related TEAEs,"N = 37, fifteen participants",40.5%
same,participants with Grade 23 TEAEs,"N = 37, ten participants",27.0%
same,Patients with Any Compound (1-g) related TEAE,Overall (N = 37),15 (40.5) n (%)
same,Patients with Any TEAE,Overall (N = 37),29 (78.4) n (%)
same,TEAE: Abdominal Distension,Overall (N = 37),1 (2.7) n (%)
same,TEAE: Abdominal Pain,Overall (N = 37),2 (5.4) n (%)
same,TEAE: Acute Kidney Injury,Overall (N = 37),1 (2.7) n (%)
same,TEAE: Adrenal Insufficiency,Overall (N = 37),1 (2.7) n (%)
same,TEAE: Alopecia,Overall (N = 37),1 (2.7) n (%)
same,TEAE: Anaemia,Overall (N = 37),2 (5.4) n (%)
same,TEAE: Anxiety,Overall (N = 37),1 (2.7) n (%)
same,TEAE: Arthralgia,Overall (N = 37),2 (5.4) n (%)
same,TEAE: Axillary Vein Thrombosis,Overall (N = 37),1 (2.7) n (%)
same,TEAE: Back Pain,Overall (N = 37),3 (8.1) n (%)
same,TEAE: Basal Cell Carcinoma,Overall (N = 37),1 (2.7) n (%)
same,TEAE: Breast Pain,Overall (N = 37),1 (2.7) n (%)
same,TEAE: Confusional State,Overall (N = 37),1 (2.7) n (%)
same,TEAE: Constipation,Overall (N = 37),4 (10.8) n (%)
same,TEAE: Cough,Overall (N = 37),1 (2.7) n (%)
same,TEAE: Covid-19 Pneumonia,Overall (N = 37),1 (2.7) n (%)
same,TEAE: Dehydration,Overall (N = 37),5 (13.5) n (%)
same,TEAE: Diarrhoea,Overall (N = 37),3 (8.1) n (%)
same,TEAE: Dizziness,Overall (N = 37),1 (2.7) n (%)
same,TEAE: Dysgeusia,Overall (N = 37),1 (2.7) n (%)
same,TEAE: Dyspepsia,Overall (N = 37),1 (2.7) n (%)
same,TEAE: Dyspnoea,Overall (N = 37),3 (8.1) n (%)
same,TEAE: Dysuria,Overall (N = 37),2 (5.4) n (%)
same,TEAE: Eructation,Overall (N = 37),1 (2.7) n (%)
same,TEAE: Fall,Overall (N = 37),2 (5.4) n (%)
same,TEAE: Fatigue,Overall (N = 37),6 (16.2) n (%)
same,TEAE: Flatulence,Overall (N = 37),2 (5.4) n (%)
same,TEAE: Fracture,Overall (N = 37),1 (2.7) n (%)
same,TEAE: Fungal Infection,Overall (N = 37),1 (2.7) n (%)
same,TEAE: Haematoma,Overall (N = 37),1 (2.7) n (%)
same,TEAE: Hot Flush,Overall (N = 37),5 (13.5) n (%)
same,TEAE: Hyperglycaemia,Overall (N = 37),1 (2.7) n (%)
same,TEAE: Hyperhidrosis,Overall (N = 37),3 (8.1) n (%)
same,TEAE: Hypokalaemia,Overall (N = 37),2 (5.4) n (%)
same,TEAE: Hypotension,Overall (N = 37),1 (2.7) n (%)
same,TEAE: Influenza Like Illness,Overall (N = 37),1 (2.7) n (%)
same,TEAE: Insomnia,Overall (N = 37),3 (8.1) n (%)
same,TEAE: Lower Respiratory Tract Congestion,Overall (N = 37),1 (2.7) n (%)
same,TEAE: Lymphocyte Count Decreased,Overall (N = 37),1 (2.7) n (%)
same,TEAE: Muscle Spasm,Overall (N = 37),1 (2.7) n (%)
same,TEAE: Muscular Weakness,Overall (N = 37),2 (5.4) n (%)
same,TEAE: Musculoskeletal Stiffness,Overall (N = 37),1 (2.7) n (%)
same,TEAE: Nail Disorder,Overall (N = 37),1 (2.7) n (%)
same,TEAE: Nasal Congestion,Overall (N = 37),1 (2.7) n (%)
same,TEAE: Nausea,Overall (N = 37),7 (18.9) n (%)
same,TEAE: Neutrophil Count Decreased,Overall (N = 37),6 (16.2) n (%)
same,TEAE: Oedema Peripheral,Overall (N = 37),2 (5.4) n (%)
same,TEAE: Ophthalmic Migraine,Overall (N = 37),1 (2.7) n (%)
same,TEAE: Oral Pain,Overall (N = 37),1 (2.7) n (%)
same,TEAE: Pain In Extremity,Overall (N = 37),1 (2.7) n (%)
same,TEAE: Pharyngitis,Overall (N = 37),1 (2.7) n (%)
same,TEAE: Platelet Count Decreased,Overall (N = 37),2 (5.4) n (%)
same,TEAE: Pleural Effusion,Overall (N = 37),1 (2.7) n (%)
same,TEAE: Pneumonia,Overall (N = 37),2 (5.4) n (%)
same,TEAE: Productive Cough,Overall (N = 37),1 (2.7) n (%)
same,TEAE: Rash Maculo-Papular,Overall (N = 37),2 (5.4) n (%)
same,TEAE: Rhinitis Allergic,Overall (N = 37),1 (2.7) n (%)
same,TEAE: Rib Fracture,Overall (N = 37),1 (2.7) n (%)
same,TEAE: Seizure,Overall (N = 37),1 (2.7) n (%)
same,TEAE: Sepsis,Overall (N = 37),1 (2.7) n (%)
same,TEAE: Tremor,Overall (N = 37),2 (5.4) n (%)
same,TEAE: Upper Respiratory Tract Infection,Overall (N = 37),3 (8.1) n (%)
same,TEAE: Urinary Tract Infection,Overall (N = 37),2 (5.4) n (%)
same,TEAE: Vaginal Haemorrhage,Overall (N = 37),1 (2.7) n (%)
same,TEAE: Vomiting,Overall (N = 37),2 (5.4) n (%)
same,related TEAE: Alopecia,Overall (N = 37),1 (2.7) n (%)
same,related TEAE: Arthralgia,Overall (N = 37),1 (2.7) n (%)
same,related TEAE: Constipation,Overall (N = 37),3 (8.1) n (%)
same,related TEAE: Diarrhea,Overall (N = 37),3 (8.1) n (%)
same,related TEAE: Dysgeusia,Overall (N = 37),1 (2.7) n (%)
same,related TEAE: Eructation,Overall (N = 37),1 (2.7) n (%)
same,related TEAE: Fatigue,Overall (N = 37),2 (5.4) n (%)
same,related TEAE: Flatulence,Overall (N = 37),1 (2.7) n (%)
same,related TEAE: Hyperhidrosis,Overall (N = 37),1 (2.7) n (%)
same,related TEAE: Nail Disorder,Overall (N = 37),1 (2.7) n (%)
same,related TEAE: Platelet Count Decreased,Overall (N = 37),1 (2.7) n (%)
same,related TEAE: Tremor,Overall (N = 37),1 (2.7) n (%)
same,related TEAE: Vomiting,Overall (N = 37),1 (2.7) n (%)
same,Compound (1-g) related TEAEs of CTCAE grade >=3,"all cohorts, N = 37",no Grade≥3 TEAEs were considered as related to compound (1-g); also recorded: No data meets output criteria
same,participants with TEAEs that led to dose interruption,"all cohorts, N = 37",Nine
same,dose-related trend in incidence of related TEAEs,between 100 mg and 600 mg,No dose-related trends were evident
same,related TEAE: Hot Flush,"human, in vivo",5 (13.5) n (%)
same,related TEAE: Nausea,"human, in vivo",5 (13.5) n (%)
same,related TEAE: Neutrophil Count Decreased,"human, in vivo",4 (10.8) n (%)
